Laboratory results as given in PMC2374555, “Inhibition of aromatase activity and expression in MCF-7 cells by the chemopreventive retinoid N -(4-hydroxy-phenyl)-retinamide” (British Journal of Cancer, 2000).

Target: T1, aromatase (Homo sapiens, UniProt P11511)
T1 construct: gene CYP19A1; microsomes isolated from JEG-3 human choriocarcinoma cells
T1 sequence (P11511 1-503): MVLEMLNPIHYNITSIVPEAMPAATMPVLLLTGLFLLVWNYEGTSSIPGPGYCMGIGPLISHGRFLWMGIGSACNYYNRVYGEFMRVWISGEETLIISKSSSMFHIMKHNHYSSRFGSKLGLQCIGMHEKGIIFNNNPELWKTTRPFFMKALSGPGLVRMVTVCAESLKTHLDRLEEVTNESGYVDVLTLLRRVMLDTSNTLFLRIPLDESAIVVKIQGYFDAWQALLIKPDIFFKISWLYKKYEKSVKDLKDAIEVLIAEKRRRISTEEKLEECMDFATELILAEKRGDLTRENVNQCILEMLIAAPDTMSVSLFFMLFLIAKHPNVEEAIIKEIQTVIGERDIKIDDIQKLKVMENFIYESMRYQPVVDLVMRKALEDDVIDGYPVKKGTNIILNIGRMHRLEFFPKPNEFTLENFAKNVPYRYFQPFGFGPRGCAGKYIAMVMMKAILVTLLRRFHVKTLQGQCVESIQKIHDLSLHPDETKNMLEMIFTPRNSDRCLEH
Assay: 3H2O release aromatase assay in JEG-3 microsomes, Lineweaver-Burk kinetics; also intact MCF-7 cells
Assay type: biochemical

CC1=C(/C=C/C(C)=C/C=C/C(C)=C/C(=O)Nc2ccc(O)cc2)C(C)(C)CCC1 [4-HPR, N-(4-hydroxyphenyl)-retinamide]
IC50: 1000 nM
